Reference: US20140004192A1, “PHARMACEUTICAL FORMULATIONS OF INDIBULIN AND USES THEREOF” (Ziopharm Oncology, Inc., priority 2012, published 2014)
Like-named read-outs stand apart in the source and are kept apart here.

Experiments:
[1] = Rat pharmacokinetic study, second study (dose response); format: in vivo, rats; settings: plasma, po; for AUC(0-t) / Cmax / Tmax: Second Study; for concentration at 0 h / concentration at 0.5 h / concentration at 1 h / concentration at 2 h / concentration at 4 h / concentration at 6 h / concentration at 10 h: second study, read-out: plasma indibulin
Method: The second study was designed to determine the dose response of indibulin plasma concentration with the 10% A SDD formulation. In general, 10% A SDD was administered p.o. at 10, 15 and 20 mg/kg and plasma indibulin concentrations were determined at several time points.
All rats used in the second study were fasted 12 hours prior to dose, and food was returned 4 hours post dose. Indibulin in crystalline form was suspended in 0.5% Methocel A at 10 mg/kg, 15 mg/kg and 20 mg/kg by vortexing and sonicating. The indibulin SDD formulations were made by combining 10% active indibulin SDD at 10 mg/kg, 15 mg/kg and 20 mg/kg in a mortar with 0.5% Methocel A and using a pestle to gradually mix in to solution. There were six rats per group, all animals were weighed and the dose volume calculated so that each rat received the test article orally at a volume of 10 mL/kg. The first three rats in each group were bled at […], 2, and 6 hours post dose; the remaining three rats in each group were bled at 1, 4, and 10 hours post dose. For blood collection at all time points, all animals were anesthetized with an inhalation of 4% isoflurane and 1.5% oxygen; once it was determined that the animal was adequately anesthetized (no reaction to physical stimulation) using a capillary tube the orbital venous plexus was punctured and a volume of 1 mL of blood was collected in to a sodium heparin tube. Once the blood was collected the sodium heparin tube was inverted ten times, and placed on ice until centrifuged for 10 minutes at 2510 rpm. The plasma was decanted into labeled Eppendorfs and stored at −80° C. until analyzed by HPLC with MS/MS Detection. All data were acquired using Applied Biosystems/MDS-Sciex Analyst Version 1.5; processed, and reported using Watson Version 7.3.0.01TM, Thermo Fisher Scientific, Inc.; and are summarized in FIG. 13 and FIG. 14.

Membrane-permeation test = format: physicochemical; settings: feed MFDS, 37° C.
Method: The 10% A HPMCAS-H(HPMCAS high grade), 15% A HPMCAS-H, 20% A HPMCAS-H, 25% A HPMCAS-H, 25% A HPMCAS-M (HPMCAS medium grade) and 50% A HPMCAS-M SDD formulations were also evaluated in a membrane-permeation test at 37° C. in a temperature-controlled box. Test procedures were described, for example, in U.S. Pat. No. 7,611,630. For example, a membrane-permeation test of 10% A HPMCAS-H indibulin SDD was performed using the following procedures: • 1. Accurately weigh 1 mgA (10 mg of 10% A:HPMCAS-H SDD) into the outer-glass reservoir of the test apparatus. All samples are prepared in duplicates. • 2. Add 5 mL MFDS and start the timer. • 3. Cap each reservoir and vortex at medium setting for 1 minute. Stir at 100 rpm. • 4. After 9 minutes of addition of MFDS, add 5 mL of 80/20 (wt/wt) […]/Decane permeate to the inside of the membrane cells. • 5. After 1 minute (at 10 minutes) place a cell containing the permeate solution into the outer reservoir holding the feed/drug solution. Take a O-minute time point. Tilt the entire apparatus at a 45° angle to ensure that no air bubbles are trapped under the membrane. • 6. Place apparatus back on stir plate at 100 rpm. • 7. […]
This test assessed the rate of solubilized drug indibulin that passed through a synthetic membrane from aqueous MFDS to an aqueous immiscible organic sink solution. […]

## O=C(Nc1ccncc1)C(=O)c1cn(Cc2ccc(Cl)cc2)c2ccccc12 [Bulk Crystalline Drug, indibulin]
[1]; rat p.o. 10 mg/kg (60 mg/m^2)
  AUC(0-t): 48 ng·h/mL
  Cmax: 8.6 ng/mL
  Tmax: 2 h
[1]; rat p.o. 15 mg/kg (90 mg/m^2)
  AUC(0-t): 146 ng·h/mL
  Cmax: 24 ng/mL
  Tmax: 4 h
[1]; rat p.o. 20 mg/kg (120 mg/m^2)
  AUC(0-t): 110 ng·h/mL
  Cmax: 21 ng/mL
  Tmax: 4 h
[1]; rat p.o. 10 mg/kg
  concentration at 0 h: 0 ng/mL
  concentration at 0.5 h: 2 ng/mL
  concentration at 1 h: 4 ng/mL
  concentration at 2 h: 9 ng/mL
  concentration at 4 h: 4 ng/mL
  concentration at 6 h: 7 ng/mL
  concentration at 10 h: 2 ng/mL
[1]; rat p.o. 15 mg/kg
  concentration at 0 h: 0 ng/mL
  concentration at 0.5 h: 10 ng/mL
  concentration at 1 h: 17 ng/mL
  concentration at 2 h: 17 ng/mL
  concentration at 4 h: 24 ng/mL
  concentration at 6 h: 7 ng/mL
  concentration at 10 h: 19 ng/mL
[1]; rat p.o. 20 mg/kg
  concentration at 0 h: 0 ng/mL
  concentration at 0.5 h: 9 ng/mL
  concentration at 1 h: 12 ng/mL
  concentration at 2 h: 14 ng/mL
  concentration at 4 h: 21 ng/mL
  concentration at 6 h: 7 ng/mL
  concentration at 10 h: 6 ng/mL
Membrane-permeation test
  Average Flux: 0.10 μgA/cm^2 × min
